Laboratory results: PMC9786284, “Synthesis and Antiproliferative Effect of Halogenated Coumarin Derivatives” (Molecules, 2022)
Read-outs that look alike come from different tables or passages of the source.

How the values were obtained:
Format in all cases: cell-based
[1] = test system: TPC-1 thyroid cancer cell line; experiment: MTT cell viability assay
Experimental: (§1) The cytotoxic effect of coumarins 2a–k was tested on several cancer and normal cell lines: lung cancer cell line (SK-MES-1), thyroid cancer cell lines (K-1; B-CPAP ant TPC-1), lung fibroblast (MRC-5) and thyroid normal cell line (Nthy-ori-3-1) by MTT (3-[4,5-dimethylthiazol-2-yl]-2,5 diphenyltetrazolium bromide) assay.
(§2) The papillary thyroid carcinoma (PTC)-derived cell lines (TPC-1 and B-CPAP) were kindly provided by Dr. Fusco (Medical School, University Federico II of Naples, Naples, Italy). K-1 PTC-derived cell line and non-tumorigenic thyroid Nthy-ori-3-1 cell line were purchased from Health Protection Agency Culture Collections. The PTC-derived cell lines were maintained in DMEM/F12 (Gibco-BRL. Life Technologies, Milan, Italy)] supplemented with 10% fetal bovine serum (Gibco-BRL) at 37 °C in humidified 5% CO2. SK-MES-1 and MRC-5 were purchased from American Type Culture Collection (ATCC) and were maintained in Mem-E medium, supplemented with 10% fetal bovine serum, 100 units/mL penicillin G, and 100 μg/mL streptomycin (Gibco-BRL) at 37 °C in humidified 5% CO2.
(§3) The effect of test compounds on the viability of cells was detected by MTT assay. The thyroid cells (7.5 × 10^3 cells/mL), SK-MES-1, and MRC-5 (8 × 10^4 cells/mL) were seeded into a 96-well plate and allowed to adhere for 16 h to culture plates before the addition of the compounds.
(§4) Then, compounds were added at different concentrations (0.8–100 μM), and cells were further incubated for 24 h. Cells with no treatment were used as a negative control. After incubation, cells were treated with MTT solution for 3 h at 37 °C. Then, the MTT solution was removed, and 150 µL of DMSO was added to the wells. The absorbances were measured at 570 nm using a TECAN microplate reader (Infinite 200, Tecan, Salzburg, Austria). Viability data were reported as % of control (untreated cells) for each cell line.

[2] = MTT cell viability assay; settings: human, MTT, 24 h, concentration required to inhibit cell proliferation by 50%, mean ± SD
Experimental: as §1, §2, §3, §4

[3] = test system: B-CPAP thyroid cancer cell line; experiment: MTT cell viability assay
Experimental: as §1, §2, §3, §4

[4] = test system: K-1 thyroid cancer cell line; experiment: MTT cell viability assay
Experimental: as §1, §2, §3, §4

[5] = test system: SK-MES-1 lung cancer cell line; experiment: MTT cell viability assay
Experimental: as §1, §2, §3, §4

[6] = test system: MRC-5 lung fibroblast; experiment: MTT cell viability assay
Experimental: as §1, §2, §3, §4

[7] = test system: Nthy-ori-3-1 thyroid normal cell line; experiment: MTT cell viability assay
Experimental: as §1, §2, §3, §4

[8] = Homo sapiens, TPC1, TPC-1, MTT, 24 h, concentration required to inhibit cell proliferation by 50%, mean ± SD, read-out: CC50
[9] = Nthy-ori-3-1 normal thyroid cells, Nthy-ori-3-1
[10] = Homo sapiens, BCPAP, B-CPAP, MTT, 24 h, concentration required to inhibit cell proliferation by 50%, mean ± SD, read-out: CC50
[11] = K-1, MTT, 24 h, concentration required to inhibit cell proliferation by 50%, mean ± SD, read-out: CC50
[12] = Homo sapiens, SK-MES-1, MTT, 24 h, concentration required to inhibit cell proliferation by 50%, mean ± SD, read-out: CC50

| Molecule | CC50 [1, 8] [µM] | CC50 at 24 h ([2]; MRC-5 lung fibroblasts, MRC-5) [µM] | CC50 at 24 h [2, 9] [µM] | CC50 [3, 10] [µM] | CC50 [4, 11] [µM] | CC50 [5, 12] [µM] | CC50 [6] [µM] | CC50 [1] [µM] | CC50 [7] [µM] | CC50 [3] [µM] | CC50 [4] [µM] | CC50 [5] [µM] |
| --- | --- | --- | --- | --- | --- | --- | --- | --- | --- | --- | --- | --- |
| N#Cc1cc2cc(F)ccc2oc1=O [2a, 6-Fluoro-2-oxo-2H-chromene-3-carbonitrile] | > 100 | > 100 | > 100 | > 100 | > 100 | > 100 |  |  |  |  |  |  |
| N#Cc1cc2cc(Cl)ccc2oc1=O [2c, 6-Chloro-2-oxo-2H-chromene-3-carbonitrile] | > 100 | > 100 | > 100 | > 100 | > 100 | > 100 |  |  |  |  |  |  |
| CCOC(=O)c1cc2cc(Br)ccc2oc1=O [2d, Ethyl 6-bromo-2-oxo-2H-chromene-3-carboxylate] | > 100 | > 100 | > 100 | > 100 | > 100 | > 100 |  |  |  |  |  |  |
| N#Cc1cc2cc(Br)ccc2oc1=O [2e, 6-Bromo-2-oxo-2H-chromene-3-carbonitrile] | > 100 | > 100 | > 100 | > 100 | > 100 | > 100 |  |  |  |  |  |  |
| CS(=O)(=O)c1cc2cc(Br)ccc2oc1=O [2f, 6-Bromo-3-(methylsulfonyl)-2H-chromen-2-one] | > 100 | > 100 | > 100 | > 100 | > 100 | > 100 |  |  |  |  |  |  |
| CCOC(=O)c1cc2cc(Br)cc(Br)c2oc1=O [2g, Ethyl 6,8-dibromo-2-oxo-2H-chromene-3-carboxylate] | > 100 | > 100 | > 100 | > 100 | > 100 | > 100 |  |  |  |  |  |  |
| CCOC(=O)c1cc2cc(I)cc(I)c2oc1=O [2i, Ethyl 6,8-diiodo-2-oxo-2H-chromene-3-carboxylate] | > 100 | > 100 | > 100 | > 100 | > 100 | > 100 |  |  |  |  |  |  |
| O=C(O)c1cc2cc(I)cc(I)c2oc1=O [2j, 6,8-diiodo-2-oxo-2H-chromene-3-carboxylic Acid] | > 100 | > 100 | > 100 | > 100 | > 100 | > 100 |  |  |  |  |  |  |
| CC[C@@]1(O)C(=O)OCc2c1cc1n(c2=O)Cc2cc3ccccc3nc2-1 [Camptothecin, reference compound] | 0.01 ± 0.02 | 0.1 ± 0.03 | 0.01 ± 0.02 | 0.03 |  | 0.017 ± 0.003 |  |  |  |  |  |  |
| Ethyl 6-fluoro-2-oxo-2H-chromene-3-carboxylate [2b] |  |  |  |  |  |  | > 100 | > 100 | > 100 | > 100 | > 100 | > 100 |
